Experimental data from the CheMixHub ionic liquid set.

Assay: xn = mol fraction of the nth substance listed
Conditions: 100 kPa

CN1CCCN(C)C1=O + CCCCCC[n+]1ccn(C)c1.[Cl-]
viscosity [mPa·s]
Conditions	288.15 K	293.15 K	298.15 K	303.15 K	308.15 K	313.15 K	318.15 K	323.15 K	328.15 K	333.15 K
x2 = 0	4	3.51	3.11	2.78	2.5	2.266	2.064	1.891	1.737	1.595
x2 = 0.1011	9.78	8.21	6.99	6.01	5.22	4.59	4.06	3.63	3.25	2.94
x2 = 0.1987	29.2	23.3	18.82	15.64	13.14	10.05	8.62	7.47	6.53	5.75
x2 = 0.3083	77.7	59.1	45.8	36.3	29.2	23.9	19.81	16.38	13.92	12.29
x2 = 0.3981	184	133.6	99.3	75.6	63.8	50.5	40.6	33	27.5	23.11
x2 = 0.4957	412	283	215	157.4	117.8	90.1	70.2	55.6	44.6	36.3
x2 = 0.6008	897	600	418	296	215	158	121	93.6	73.9	58.6
x2 = 0.6983	2019	1294	856	583	408	294	215	163.7	124.9	96.8
x2 = 0.7961	–	2416	1565	1044	708	496	357	261	196	148.4
